Measured values as given in US12257326B2, “TCO conjugates and methods for delivery of therapeutic agents” (THE REGENTS OF THE UNIVERSITY OF CALIFORNIA, priority 2014, dated 2025).

Key:
[1] = In-vivo kinetic biodistribution of fluorescence after TCO-R-Rhodamine injection; design: species or system mice; details: Tz-Me-Gel (released) vs negative control (no gel injection)
Procedure: The bar graph extrapolates the data to a presumed total amount achieved in 8 hours.
(§1) For in-vivo experiments, 800 μl of 2.5% alginate solution were mixed with 200 μl of supersaturated […] solution (0.21 g Ca(SO4)2/ml ddH2O). The solutions were mixed for 30 s using a three-way stopcock to achieve a final alginate concentration of 2%. The mixture was immediately injected to the animal in the desired amount.
After IACUC approval, in-vivo real-time biodistribution studies of fluorescence were carried out in nu/nu mice (n=2 per condition) by injecting either nothing or a type of alginate (control vs Tz-Gel). Then subjects received a tail-vein injection of TCO-R-F or TCO-NR-F. The negative controls were: 1. No gels with TCO-R-F (Negative control, mouse 1); 2. control alginate with TCO-R-F (Gel control, mouse 4). The two experimental groups were Tz-gel and either TCO-R-F (Released protocol, mouse 2) or TCO-NR-F (Immobilized protocol, mouse 3). Fluorescence was measured with an IVIS Spectrum (Perkin Elmer, MA) and reported in radiance.

[2] = In-vivo kinetic multiple dose evaluation of fluorescence (IVIS Spectrum); design: species or system mice; details: 50 nmoles per tail vein injection; Tz-Me-gel group vs no gel and unmodified alginate gel; paired T-test, n=3
Procedure: Three mice were evaluated after each injection of 50 nmoles of TCO-R-Rhodamine through tail vein injection. The mice were treated as described above their images. […] The “released” subject received an injection in the subcutaneous back of Tz-Me-gel. The “gel control” subject received an injection in the subcutaneous back of alginate gel. The mice were evaluated with an IVIS Spectrum machine after 5-10 minutes and 110-150 minutes after each dose of fluorophore.
Compared by paired T-test (n=3).
as §1

dose reflected by the area under the curve of fluorescence, extrapolated to total amount in 8 hours [1]: almost doubled
average fluorescence at 5-10 minutes vs 110-150 minutes after second, third & fourth injection [2]: statistically higher
Structure (SMILES): CN(C)c1ccc2c(-c3ccc(C(=O)NCCNC(=O)OC4/C=C/CCCCC4)cc3C(=O)O)c3ccc(=[N+](C)C)cc-3oc2c1 (centres unmarked) [TCO-R-Rhodamine, (E)-5-((2-(((cyclooct-2-cn-1-yloxy)carbonyl)amino)ethyl)carbamoyl)-2-(3-(dimethyl-Π^4-azanylidene)-6-(dimethylamino)-3H-xanthen-9-yl)benzoic acid]
